# In patent US9873883B2, “Glyphosate resistant plants and associated methods” (Dow AgroSciences LLC, priority 2012, dated 2018):
# Where two headings read alike, the source gives them in different places.
# How the values were obtained:
# [1] = biological target: T1, Brassica napus (canola) EPSP synthase DGT-3 (GENBANK P17688) variant DGT-3 v7 (G→A, P→S; GAPS) (Brassica napus, UniProt P17688, G173A/P178S); assay: In vitro kinetic assay (inorganic phosphate production, malachite green); type: biochemical; details: IC50 (glyphosate)
# T1 construct: made in house; host or cells: E. coli Rosetta2 (DE3)
# [2] = biological target: Glycine max (soybean) EPSP synthase DGT-1 variant DGT-1 v7 (G→A, P→S; GAPS) (Glycine max, UniProt I1J7U9, G182A/P187S); assay: as above; type: biochemical
# [3] = biological target: T2, Triticum aestivum (wheat) EPSP synthase DGT-7 variant DGT-7 v7 (G→A, P→S; GAPS) (Triticum aestivum, UniProt B5M6A1, G167A/P172S); assay: as above; type: biochemical; details: IC50 (glyphosate)
# T2 construct: GAPS double mutant
# [4] = tested on: untransformed B104 maize line; assay: Growth inhibition dosage response in maize callus culture; type: cell-based, Zea mays
# dgt-14 soybean plants = assay: Glyphosate tolerance of dgt-14 soybean; type: in vivo, Glycine max; details: sprayed
# Procedure: Terminal leaflets of selected plantlets are treated topically (leaf paint technique) with a herbicide to screen for putative transformants. The screened plantlets are transferred to the greenhouse, allowed to acclimate and then leaf-painted with a herbicide to reconfirm tolerance. These putative transformed T0 plants are sampled and molecular analyses is used to confirm the presence of the selectable marker and the dgt-14 transgene. Several events are identified as containing the transgenes. These T0 plants are advanced for further analysis and allowed to self fertilize in the greenhouse to give rise to T1 seed. Soybean plants containing the dgt-14 transgene are obtained. The dgt-14 soybean plants are sprayed with varying concentrations of glyphosate and shown to provide tolerance to glyphosate at concentrations up to 3360 g ae/ha.
# [5] = tested on: Arabidopsis transformed with TraP12 v2::dgt-14 (pDAB105528); assay: Postemergence glyphosate tolerance, visual injury; type: in vivo, Arabidopsis thaliana; details: 2 weeks after application
# [6] = tested on: Non-transformed control Arabidopsis (cv. Columbia); assay: Postemergence glyphosate tolerance, visual injury; type: in vivo, Arabidopsis thaliana; details: 840 g ae/ha, 2 weeks after application
# Sequence of Glycine max (soybean) EPSP synthase DGT-1 variant DGT-1 v7 (G→A, P→S; GAPS) (I1J7U9 entry or part of it G182A/P187S): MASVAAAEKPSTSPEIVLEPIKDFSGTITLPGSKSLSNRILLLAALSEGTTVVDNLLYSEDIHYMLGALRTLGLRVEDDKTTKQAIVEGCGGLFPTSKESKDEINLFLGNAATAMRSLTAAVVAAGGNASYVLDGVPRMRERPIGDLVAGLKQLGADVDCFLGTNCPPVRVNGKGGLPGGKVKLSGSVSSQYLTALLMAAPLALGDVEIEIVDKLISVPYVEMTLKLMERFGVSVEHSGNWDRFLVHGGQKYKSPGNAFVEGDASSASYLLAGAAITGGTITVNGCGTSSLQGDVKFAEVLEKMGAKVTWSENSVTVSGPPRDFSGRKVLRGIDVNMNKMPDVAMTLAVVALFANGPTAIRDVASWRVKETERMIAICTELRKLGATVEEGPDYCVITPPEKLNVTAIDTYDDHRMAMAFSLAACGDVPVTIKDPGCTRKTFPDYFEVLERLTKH
# T2 sequence (B5M6A1 entry or part of it G167A/P172S): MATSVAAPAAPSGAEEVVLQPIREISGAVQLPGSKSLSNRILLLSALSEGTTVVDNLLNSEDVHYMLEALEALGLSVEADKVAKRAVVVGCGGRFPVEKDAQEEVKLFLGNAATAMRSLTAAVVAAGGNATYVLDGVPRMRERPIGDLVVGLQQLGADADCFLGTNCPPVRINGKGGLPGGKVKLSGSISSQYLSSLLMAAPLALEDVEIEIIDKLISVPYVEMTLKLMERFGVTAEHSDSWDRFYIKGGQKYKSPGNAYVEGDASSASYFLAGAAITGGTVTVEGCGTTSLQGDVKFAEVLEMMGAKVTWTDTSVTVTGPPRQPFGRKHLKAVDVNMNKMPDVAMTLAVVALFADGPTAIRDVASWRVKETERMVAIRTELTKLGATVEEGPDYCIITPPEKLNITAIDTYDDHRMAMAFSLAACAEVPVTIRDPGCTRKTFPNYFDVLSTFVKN
# T1 sequence (P17688 73-516 G173A/P178S, one chain of several): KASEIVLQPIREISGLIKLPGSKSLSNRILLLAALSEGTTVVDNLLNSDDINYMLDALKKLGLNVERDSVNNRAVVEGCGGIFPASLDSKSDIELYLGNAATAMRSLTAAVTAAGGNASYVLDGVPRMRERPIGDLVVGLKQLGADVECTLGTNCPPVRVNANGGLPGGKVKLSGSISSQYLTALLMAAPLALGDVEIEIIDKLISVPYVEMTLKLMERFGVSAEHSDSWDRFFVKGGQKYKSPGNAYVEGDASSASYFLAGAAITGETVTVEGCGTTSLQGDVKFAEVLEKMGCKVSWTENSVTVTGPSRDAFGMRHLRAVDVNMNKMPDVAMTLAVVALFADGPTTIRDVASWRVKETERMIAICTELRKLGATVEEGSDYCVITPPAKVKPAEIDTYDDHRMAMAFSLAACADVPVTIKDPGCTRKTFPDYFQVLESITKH
smiles,measurement,setting,value
"O=C(O)CNCP(=O)(O)O [glyphosate, N-(phosphonomethyl)glycine]",IC50,[1]; at 60 μM PEP,42 mM
same,IC50,"[1]; at 1 mM PEP, values greater than 50 are estimates",50.5 mM
same,IC50,[2],> 80 mM
same,IC50,"[2]; read-out: IC50 (glyphosate), at 60 μM PEP, values greater than 50 are estimates",> 80 mM
same,IC50,[3]; at 60 μM PEP,15.4 mM
same,IC50,[3]; at 1 mM PEP,19.7 mM
same,glyphosate concentrations sufficient to inhibit cell growth,[4],≥ 0.25 mM
same,tolerance to glyphosate at concentrations up to,dgt-14 soybean plants,up to 3360 g ae/ha
same,Visual % injury (Ave),"[5]; T2, 840 g ae/ha",2.5%
same,Visual % injury (Ave),"[5]; T3, 840 g ae/ha",0.0%
same,Visual % injury (Ave),[6]; T2 study,100.0%
same,Visual % injury (Ave),[6]; T3 study,100.0%
